Calls of active or inactive are those of the source. How the calls were made is not given here.

Our source for the IC50 values is ChEMBL document CHEMBL1201862, “PubChem BioAssay data set” (2004).

The experiment addresses T1, Caspase-3 (Homo sapiens, UniProt P42574).
T1 sequence (P42574 whole entry): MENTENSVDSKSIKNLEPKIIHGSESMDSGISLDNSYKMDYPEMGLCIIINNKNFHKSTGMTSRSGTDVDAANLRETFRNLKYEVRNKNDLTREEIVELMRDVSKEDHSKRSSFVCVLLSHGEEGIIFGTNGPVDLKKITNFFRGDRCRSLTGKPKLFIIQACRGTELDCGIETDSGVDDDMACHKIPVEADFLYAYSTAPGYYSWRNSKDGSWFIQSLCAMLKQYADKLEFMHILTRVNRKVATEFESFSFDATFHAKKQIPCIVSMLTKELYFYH
Put plainly: Dose-response confirmation of uHTS inhibitor hits of Sentrin-Specific Protease 8 in a Caspase-3 Fluorescence assay. The experiment is classed as functional.

Regarding `O=C(NNc1cc(N2CCOCC2)nc(N2CCOCC2)n1)c1ccc([N+](=O)[O-])cc1`, the IC50 (in general, the concentration that inhibits the measured activity by half) was 20.9 µM (active).
